From PMC9596378, “Discovery and molecular basis of subtype-selective cyclophilin inhibitors” (Nature Chemical Biology, 2022)
“And” between values parts separate entries of the source, which are not always exact repeats. Identical values can stand only once. Like-named read-outs stand apart in the source and are kept apart here.

Experiments:
CypE = biological target: T1, CypE (Homo sapiens, UniProt Q9UNP9); experiment: Chymotrypsin coupled prolyl-isomerase assay; type: biochemical
T1 construct: PPIE (UniProtKB Entry Q9UNP9: residues 131–301); host or cells: E. coli BL21(DE3)
Summary of the method: (§1)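 Chymotrypsin-coupled cis–trans isomerization of Suc-AAPF-AMC (5 µM) catalysed by 5 nM cyclophilin, run cold (2–3 °C) at pH 7.3 with 5 min compound preincubation.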

CypG = biological target: T2, CypG (Homo sapiens, UniProt Q13427); experiment: Chymotrypsin coupled prolyl-isomerase assay; type: biochemical
T2 construct: PPIG (UniProtKB Entry Q13427: residues 1–179); His6 with thrombin site (pET28a LIC leader) (N); host or cells: E. coli BL21(DE3)
T2 sequence (Q13427 1-179): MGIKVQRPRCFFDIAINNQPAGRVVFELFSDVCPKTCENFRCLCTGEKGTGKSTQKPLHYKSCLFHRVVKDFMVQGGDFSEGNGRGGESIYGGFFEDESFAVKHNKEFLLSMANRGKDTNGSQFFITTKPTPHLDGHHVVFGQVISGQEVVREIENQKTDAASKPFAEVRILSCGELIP
Summary of the method: as §1

CypB = biological target: T3, CypB (Homo sapiens, UniProt P23284); experiment: biochemical;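 as to CypB prolyl-isomerase raw dose-response reading (Fig. 6c): observed rate constant per well from one-phase association fit in s−1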
T3 construct: PPIB (UniProtKB Entry P23284: residues 34–216); His6 with TEV site (2BT vector leader) (N); made in house; host or cells: E. coli BL21(DE3)
Summary of the method: as §1

PPIL1 = biological target: T4, PPIL1 (Homo sapiens, UniProt Q9Y3C6); experiment: Chymotrypsin coupled prolyl-isomerase assay; type: biochemical;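 as to PPIL1 prolyl-isomerase raw dose-response reading (Fig. 6c): Per-well observed rate constant from one-phase association fit in s−1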
T4 construct: PPIL1 (UniProtKB Entry Q9Y3C6: residues 1–166); made in house; host or cells: E. coli BL21(DE3)
T4 sequence (Q9Y3C6 1-166): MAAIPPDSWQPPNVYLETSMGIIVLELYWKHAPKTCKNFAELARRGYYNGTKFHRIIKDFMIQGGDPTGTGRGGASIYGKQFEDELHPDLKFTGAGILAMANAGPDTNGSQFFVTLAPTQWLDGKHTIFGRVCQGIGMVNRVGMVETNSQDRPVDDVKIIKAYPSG
Method: Adapting a previously described protocol[51], with an Agilent Bravo Velocity 11 with a 384ST head, 90 µL assay buffer (25 mM HEPES pH 7.3, 100 mM NaCl, 0.01% Triton X-100) containing 5.28 nM cyclophilin was added into a flat, clear-bottom, black 384-well plate pre-chilled in a Corning CoolBox at 2–3 °C. Five microliters of compound pre-dissolved in 5% DMSO/assay buffer was then added to appropriate wells and incubated at 2–3 °C for 5 min. Five microliters of 0.5 mM α-chymotrypsin from bovine pancreas (Type II, lyophilized powder, Millipore-Sigma) in 20% 1 mM HCl/Assay Buffer was then added to each well and incubated at 2–3 °C for 5 min. […] Using the internal liquid handling system of the FLIPR, 1 µL 0.5 mM Suc-AAPF-AMC (Chymotrypsin Substrate II, Millipore-Sigma) dissolved in 0.55 M LiCl/2,2,2-trifluoroethanol was added to each well, which was then mixed for 5 s, followed by immediate fluorescence measurements every 1 s for 330 s using a 360–380 nm excitation LED module and a 400–460 nm emission filter. Final concentrations of the plate include 5 nM cyclophilin, 0.25% DMSO, 25 µM α-chymotrypsin, 5 µM Suc-AAPF-AMC. Raw fluorescence data was analyzed by non-linear regression analysis with Prism v.9 by fitting one-phase association curves to each well. Analyses were halted after the calculated maximum fluorescent value owing to observed fluorescent bleaching during the sustained fluorescent plateau. Rate constants calculated for each well (s^−1) were then normalized to substrate only (no prolyl-isomerase) and enzyme + substrate only controls. IC50 values were calculated as the value at which 50% inhibition was achieved on the non-linear regression fitted curve of each compound.

T1 sequence (Q9UNP9 131-301): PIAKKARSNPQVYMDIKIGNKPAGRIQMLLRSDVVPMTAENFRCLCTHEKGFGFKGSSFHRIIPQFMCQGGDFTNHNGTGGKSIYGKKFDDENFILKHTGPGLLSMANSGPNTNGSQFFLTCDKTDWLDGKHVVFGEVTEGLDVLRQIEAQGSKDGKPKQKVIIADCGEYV
T3 sequence (P23284 34-216): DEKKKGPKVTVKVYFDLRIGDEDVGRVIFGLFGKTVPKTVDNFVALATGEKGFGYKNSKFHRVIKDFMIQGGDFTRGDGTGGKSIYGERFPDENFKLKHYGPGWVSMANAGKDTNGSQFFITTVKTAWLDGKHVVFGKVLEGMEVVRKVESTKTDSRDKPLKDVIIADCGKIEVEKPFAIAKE

NC(=O)C1CCNC(=O)C=CC(=O)N2CCCC(Cc3ccccc3)(C2)C(=O)NC(Cc2ccc(-c3ccc(C=O)c(B(O)O)c3)cc2)C(=O)NCc2ccccc2CC(=O)N1 (stereo not shown) [Compound C3A]
IC50 (CypE; Independent replicate 4, read-out: IC50 CypE): 12 ± 4 nM
selectivity for CypE over the other cyclophilins screened (CypE; prolyl-isomerase IC50): 30- to 4,000 fold
IC50 (CypE; prolyl-isomerase inhibition, 5 nM cyclophilin, read-out: IC50 CypE): 13 ± 4 nM
IC50 (CypE; prolyl-isomerase inhibition, read-out: IC50 CypE): 13 nM
IC50 (CypE; wild-type CypE, read-out: Wild-Type Cyclophilin Prolyl Isomerase Inhibition IC50 Values, CypE): 13 nM
CypG prolyl-isomerase raw dose-response reading (Fig. 6c) (CypG; Dose 0.00457247 µM): 0.04675 and 0.05256 and 0.06278
CypG prolyl-isomerase raw dose-response reading (Fig. 6c) (CypG; Dose 0.0137174 µM): 0.05042 and 0.05542 and 0.04906
CypG prolyl-isomerase raw dose-response reading (Fig. 6c) (CypG; Dose 0.0411523 µM): 0.05063 and 0.04839 and 0.04139
CypG prolyl-isomerase raw dose-response reading (Fig. 6c) (CypG; Dose 0.123457 µM): 0.04982 and 0.05395 and 0.05565
CypG prolyl-isomerase raw dose-response reading (Fig. 6c) (CypG; Dose 0.37037 µM): 0.04159 and 0.05179 and 0.03978
CypG prolyl-isomerase raw dose-response reading (Fig. 6c) (CypG; Dose 1.11111 µM): 0.05731 and 0.0555 and 0.05308
CypG prolyl-isomerase raw dose-response reading (Fig. 6c) (CypG; Dose 3.33333 µM): 0.04975 and 0.046 and 0.05109
CypG prolyl-isomerase raw dose-response reading (Fig. 6c) (CypG; Dose 10 µM): 0.05239 and 0.04081 and 0.048
IC50 (CypG; Independent replicate 1, read-out: IC50 CypG): > 10000 nM
IC50 (CypG; Independent replicate 2, read-out: IC50 CypG): ~40000 nM
IC50 (CypG; Independent replicate 3, read-out: IC50 CypG): ~26000 nM
IC50 (CypG; Independent replicate 4, read-out: IC50 CypG): ~50000 nM
IC50 (CypG; wild-type CypG, read-out: Wild-Type Cyclophilin Prolyl Isomerase Inhibition IC50 Values, CypG): 40000 nM
CypB prolyl-isomerase raw dose-response reading (Fig. 6c) (CypB; Dose 0.00114312 µM): 0.06934 and 0.06783 and 0.08183
CypB prolyl-isomerase raw dose-response reading (Fig. 6c) (CypB; Dose 0.00342936 µM): 0.07621 and 0.06975 and 0.07172
CypB prolyl-isomerase raw dose-response reading (Fig. 6c) (CypB; Dose 0.0102881 µM): 0.07116 and 0.04746 and 0.08093
CypB prolyl-isomerase raw dose-response reading (Fig. 6c) (CypB; Dose 0.0308642 µM): 0.07891 and 0.06745 and 0.0815
CypB prolyl-isomerase raw dose-response reading (Fig. 6c) (CypB; Dose 0.0925926 µM): 0.06054 and 0.05873 and 0.07182
CypB prolyl-isomerase raw dose-response reading (Fig. 6c) (CypB; Dose 0.277778 µM): 0.07925 and 0.05977 and 0.05725
CypB prolyl-isomerase raw dose-response reading (Fig. 6c) (CypB; Dose 0.833333 µM): 0.07516 and 0.05333 and 0.06224
CypB prolyl-isomerase raw dose-response reading (Fig. 6c) (CypB; Dose 2.5 µM): 0.05113 and 0.04833 and 0.05428
IC50 (CypB; Independent replicate 1, read-out: IC50 CypB): ~3000 nM
IC50 (CypB; Independent replicate 2, read-out: IC50 CypB): 7000 ± 3000 nM
IC50 (CypB; Independent replicate 3, read-out: IC50 CypB): 3000 ± 1000 nM
IC50 (CypB; Independent replicate 4, read-out: IC50 CypB): 3000 ± 2000 nM
IC50 (CypB; wild-type CypB, read-out: Wild-Type Cyclophilin Prolyl Isomerase Inhibition IC50 Values, CypB): 4000 nM
PPIL1 prolyl-isomerase raw dose-response reading (Fig. 6c) (PPIL1; Dose 0.00114312 µM): 0.05471 and 0.0599 and 0.05622
PPIL1 prolyl-isomerase raw dose-response reading (Fig. 6c) (PPIL1; Dose 0.00342936 µM): 0.05168 and 0.05762 and 0.07551
PPIL1 prolyl-isomerase raw dose-response reading (Fig. 6c) (PPIL1; Dose 0.00457247 µM): 0.05739 and 0.05515 and 0.06362 and 0.05346 and 0.05755 and 0.06002 and 0.05207 and 0.04334
PPIL1 prolyl-isomerase raw dose-response reading (Fig. 6c) (PPIL1; Dose 0.0102881 µM): 0.04812 and 0.0449 and 0.05106
PPIL1 prolyl-isomerase raw dose-response reading (Fig. 6c) (PPIL1; Dose 0.0308642 µM): 0.06685 and 0.05223 and 0.05525
PPIL1 prolyl-isomerase raw dose-response reading (Fig. 6c) (PPIL1; Dose 0.0925926 µM): 0.05203 and 0.04221 and 0.05411
PPIL1 prolyl-isomerase raw dose-response reading (Fig. 6c) (PPIL1; Dose 0.277778 µM): 0.04184 and 0.0372 and 0.04929
PPIL1 prolyl-isomerase raw dose-response reading (Fig. 6c) (PPIL1; Dose 0.833333 µM): 0.02447 and 0.02506 and 0.03512
PPIL1 prolyl-isomerase raw dose-response reading (Fig. 6c) (PPIL1; Dose 2.5 µM): 0.0232 and 0.01951 and 0.02784
IC50 (PPIL1; Independent replicate 1, read-out: IC50 PPIL1): 400 ± 200 nM
IC50 (PPIL1; Independent replicate 2, read-out: IC50 PPIL1): 500 ± 200 nM
IC50 (PPIL1; Independent replicate 3, read-out: IC50 PPIL1): 250 ± 60 nM
IC50 (PPIL1; Independent replicate 4, read-out: IC50 PPIL1): 360 ± 80 nM
IC50 (PPIL1; prolyl-isomerase inhibition, 5 nM cyclophilin, read-out: IC50 PPIL1): 400 ± 100 nM
IC50 (PPIL1; wild-type PPIL1, read-out: Wild-Type Cyclophilin Prolyl Isomerase Inhibition IC50 Values, PPIL1): 400 nM
